Measurements as given in US20230096766A1, “AMINO ACID HAVING FUNCTIONAL GROUP CAPABLE OF INTERMOLECULAR HYDROGEN BONDING, PEPTIDE COMPOUND CONTAINING SAME AND METHOD FOR PRODUCTION THEREOF” (Chugai Seiyaku Kabushiki Kaisha, priority 2018, published 2023).
*1 amine or outer side, *2 acyl side, *3 side chain or, on linkers, in order; H or OH if unused. Where a SMILES comes first, the peptide text is derived from it. Bridges are numbered along the chain shown (N, C = ends). [ ]: non-standard residue; d: D form. The star is where a group is joined. ξ: configuration not given here. X17 = CC(C)C[C@@H](C(=O)[*:2])C(C)C(=O)CCCN(C)[*:1]; Glu(NHSO2Me) = CS(=O)(=O)NC(=O)CC[C@H](N)C(=O)O; NMePhe(3-Cl) = CN[C@@H](Cc1cccc(Cl)c1)C(=O)O; ξGln(SO2Me) = CS(=O)(=O)NC(=O)CCC(N)C(=O)O; NMeF = CN[C@@H](Cc1ccccc1)C(=O)O; NMeGABA = CN(CCCC(=O)[*:2])[*:1]; NMeI = CC[C@H](C)[C@H](NC)C(=O)O; NMeL = CN[C@@H](CC(C)C)C(=O)O; NMeV = CN[C@H](C(=O)O)C(C)C; NMeAbu = CC[C@H](NC)C(=O)O; NMeA = CN[C@@H](C)C(=O)O; Piperidide = C1CCN(*)CC1; Me2NCH2CH2 = CN(C)CC*; NBuGly = CCCCNCC(=O)O; Isopentyl = CC(C)CC*; NPrGly = CCCNCC(=O)O; ξS = NC(CO)C(=O)O; Sar = CNCC(=O)O; tBu = CC(C)(C)*

Experiment: in vitro
Conditions: human, Caco-2, Caco-2

SMILES	Papp [×10⁻⁶ cm/s]
CC(C)C[C@@H]1NC(=O)[C@H](CC(C)C)N(C)C(=O)CCCN(C)C(=O)C[C@@H](C(=O)N2CCCCC2)NC(=O)[C@H](CC(C)C)N(C)C(=O)[C@H](CC(C)C)N(C)C(=O)[C@H]([C@@H](C)O)NC(=O)[C@H](CC(C)C)N(C)C(=O)[C@H](COCCN(C)C)NC(=O)[C@H](Cc2ccccc2)N(C)C(=O)[C@H](Cc2ccccc2)N(C)C1=O [pd54] ([NMeGABA][NMeL]L[NMeF][NMeF]S(Me2NCH2CH2)[NMeL]T[NMeL][NMeL]D-Piperidide; lactam N-11)	0.073
CCCCN1CC(=O)N(C)[C@@H](C(C)C)C(=O)N[C@H](C(=O)N2CCCCC2)CC(=O)N(C)[C@@H](C)C(=O)N[C@@H](COCCN(C)C)C(=O)N(C)[C@@H](CC(C)C)C(=O)N(C)[C@@H](Cc2ccccc2)C(=O)N[C@@H](CC(C)C)C(=O)N(C)[C@@H](Cc2ccccc2)C(=O)N(C)[C@@H](CC(C)C)C(=O)N[C@@H]([C@@H](C)O)C1=O [pd56] ([NMeA]S(Me2NCH2CH2)[NMeL][NMeF]L[NMeF][NMeL]T[NBuGly][NMeV]D-Piperidide; lactam N-11)	0.12
CCCN1CC(=O)N(C)[C@@H](C(C)C)C(=O)N[C@H](C(=O)N2CCCCC2)CC(=O)N(C)[C@@H](C)C(=O)N[C@@H](CC(C)C)C(=O)N(C)[C@@H](CC(C)C)C(=O)N(C)[C@@H](Cc2ccccc2)C(=O)NC(COCCN(C)C)C(=O)N(C)[C@@H](Cc2ccccc2)C(=O)N(C)[C@@H](CC(C)C)C(=O)N[C@@H]([C@@H](C)O)C1=O (stereo partly drawn) [pd57] ([NMeA]L[NMeL][NMeF][ξS](Me2NCH2CH2)[NMeF][NMeL]T[NPrGly][NMeV]D-Piperidide; lactam N-11)	0.12
CCCCN1CC(=O)N(C)[C@@H](Cc2ccccc2)C(=O)N[C@@H](COCCN(C)C)C(=O)N(C)[C@@H](CC(C)C)C(=O)N[C@@H]([C@@H](C)O)C(=O)N(C)CC(=O)N(C)[C@@H](Cc2ccccc2)C(=O)N(C)[C@@H](CC)C(=O)N[C@@H](COCCC(C)C)C(=O)N(C)[C@@H](CC(C)C)C(=O)N[C@H](C(=O)N2CCCCC2)CC1=O [pd58] ([NBuGly][NMeF]S(Me2NCH2CH2)[NMeL]T[Sar][NMeF][NMeAbu]S(Isopentyl)[NMeL]D-Piperidide; lactam N-11)	0.021
CCCCN1CC(=O)N(C)[C@@H](CC(C)C)C(=O)N[C@@H](CC(C)C)C(=O)N(C)[C@@H](Cc2ccccc2)C(=O)N(C)[C@@H](C(C)C)C(=O)N[C@H](C(=O)N2CCCCC2)CC(=O)N[C@H](CC(C)C)C(=O)N(C)[C@@H](Cc2cccc(Cl)c2)C(=O)N[C@@H](CCC(=O)NS(C)(=O)=O)C(=O)N(C)[C@@H](CC(C)C)C(=O)N[C@@H]([C@@H](C)O)C1=O [pd59] ([dL][NMePhe(3-Cl)][Glu(NHSO2Me)][NMeL]T[NBuGly][NMeL]L[NMeF][NMeV]D-Piperidide; lactam N-11)	< 0.0088
CCCCN1CC(=O)N(C)[C@@H](CC(C)C)C(=O)N[C@@H](CCC(=O)NS(C)(=O)=O)C(=O)N(C)[C@@H](Cc2cccc(Cl)c2)C(=O)N(C)[C@@H](C(C)C)C(=O)N[C@H](C(=O)N2CCCCC2)CC(=O)N[C@H](CC(C)C)C(=O)N(C)[C@@H](Cc2cccc(Cl)c2)C(=O)N[C@@H](CC(C)C)C(=O)N(C)[C@@H](CC(C)C)C(=O)N[C@@H]([C@@H](C)O)C1=O [pd60] ([dL][NMePhe(3-Cl)]L[NMeL]T[NBuGly][NMeL][Glu(NHSO2Me)][NMePhe(3-Cl)][NMeV]D-Piperidide; lactam N-11)	0.01
CCCCN1CC(=O)N(C)[C@@H](CC(C)C)C(=O)N[C@@H](CCC(=O)NS(C)(=O)=O)C(=O)N(C)[C@@H](Cc2cccc(Cl)c2)C(=O)N(C)[C@@H](C(C)C)C(=O)N[C@H](C(=O)N2CCCCC2)CC(=O)N[C@H](CC(C)C)C(=O)N(C)[C@@H](Cc2cccc(Cl)c2)C(=O)N[C@@H](CC(C)C)C(=O)N(C)[C@@H](CC)C(=O)N[C@@H]([C@@H](C)O)C1=O [pd61] ([dL][NMePhe(3-Cl)]L[NMeAbu]T[NBuGly][NMeL][Glu(NHSO2Me)][NMePhe(3-Cl)][NMeV]D-Piperidide; lactam N-11)	< 0.094
CCCCN1CC(=O)N(C)[C@@H](C(C)C)C(=O)N[C@H](C(=O)N2CCCCC2)CC(=O)N(C)[C@@H](CC(C)C)C(=O)NC(CCC(=O)NS(C)(=O)=O)C(=O)N(C)[C@@H](CC(C)C)C(=O)N(C)[C@@H](Cc2ccccc2)C(=O)N[C@@H](CC(C)C)C(=O)N(C)[C@@H](Cc2ccccc2)C(=O)N(C)[C@@H](CC(C)C)C(=O)N[C@@H]([C@@H](C)O)C1=O (stereo partly drawn) [pd62] ([NMeL][ξGln(SO2Me)][NMeL][NMeF]L[NMeF][NMeL]T[NBuGly][NMeV]D-Piperidide; lactam N-11)	< 0.13
CCCCN1CC(=O)N(C)[C@@H](C(C)C)C(=O)N[C@H](C(=O)N2CCCCC2)CC(=O)N(C)[C@@H](CC)C(=O)NC(CCC(=O)NS(C)(=O)=O)C(=O)N(C)[C@@H](CC(C)C)C(=O)N(C)[C@@H](Cc2cccc(Cl)c2)C(=O)N[C@@H](CC(C)C)C(=O)N(C)[C@@H](Cc2ccccc2)C(=O)N(C)[C@@H](CC(C)C)C(=O)N[C@@H]([C@@H](C)O)C1=O (stereo partly drawn) [pd63] ([NMeAbu][ξGln(SO2Me)][NMeL][NMePhe(3-Cl)]L[NMeF][NMeL]T[NBuGly][NMeV]D-Piperidide; lactam N-11)	< 0.1
CCCCN1CC(=O)N(C)[C@@H](CC(C)C)C(=O)N[C@H](C(=O)N2CCCCC2)CC(=O)N(C)[C@@H](CC(C)C)C(=O)N[C@@H](CC(C)C)C(=O)N(C)[C@@H](CC)C(=O)N(C)[C@@H](Cc2ccccc2)C(=O)NC(CCC(=O)NS(C)(=O)=O)C(=O)N(C)[C@@H](Cc2cccc(Cl)c2)C(=O)N(C)[C@@H](CC(C)C)C(=O)N[C@@H]([C@@H](C)O)C1=O (stereo partly drawn) [pd64] ([NMeL]L[NMeAbu][NMeF][ξGln(SO2Me)][NMePhe(3-Cl)][NMeL]T[NBuGly][NMeL]D-Piperidide; lactam N-11)	0.15
CCCCN1CC(=O)N(C)[C@@H](Cc2ccccc2)C(=O)NC(CCC(=O)NS(C)(=O)=O)C(=O)N(C)[C@@H](CC(C)C)C(=O)N[C@@H]([C@@H](C)O)C(=O)N(CCCC)CC(=O)N(C)[C@@H](Cc2ccccc2)C(=O)N(C)[C@@H](CC(C)C)C(=O)N[C@@H](CC(C)C)C(=O)N(C)[C@@H](CC(C)C)C(=O)N[C@H](C(=O)N2CCCCC2)CC1=O (stereo partly drawn) [pd65] ([NBuGly][NMeF][ξGln(SO2Me)][NMeL]T[NBuGly][NMeF][NMeL]L[NMeL]D-Piperidide; lactam N-11)	0.06
CCCCN1CC(=O)N(C)[C@@H](Cc2cccc(Cl)c2)C(=O)N[C@@H](CCC(=O)NS(C)(=O)=O)C(=O)N(C)[C@@H](CC(C)C)C(=O)N[C@@H]([C@@H](C)O)C(=O)N(CCCC)CC(=O)N(C)[C@@H](Cc2ccccc2)C(=O)N(C)[C@@H](CC(C)C)C(=O)N[C@@H](CC(C)C)C(=O)N(C)[C@@H](CC(C)C)C(=O)N[C@H](C(=O)N2CCCCC2)CC1=O [pd66] ([NBuGly][NMePhe(3-Cl)][Glu(NHSO2Me)][NMeL]T[NBuGly][NMeF][NMeL]L[NMeL]D-Piperidide; lactam N-11)	0.09
CCCCN1CC(=O)N(C)[C@@H](CC(C)C)C(=O)N[C@@H](COC(C)(C)C)C(=O)N(C)[C@@H](Cc2ccccc2)C(=O)N(C)[C@@H](C(C)C)C(=O)N[C@H](C(=O)N2CCCCC2)CC(=O)N[C@H](C(C)C)C(=O)N(C)[C@@H](Cc2ccccc2)C(=O)NC(CCC(=O)NS(C)(=O)=O)C(=O)N(C)[C@@H](CC(C)C)C(=O)N[C@@H](CC(C)C)C1=O (stereo partly drawn) [pd67] ([dV][NMeF][ξGln(SO2Me)][NMeL]L[NBuGly][NMeL]S(tBu)[NMeF][NMeV]D-Piperidide; lactam N-11)	0.06
CC(C)C[C@@H]1NC(=O)[C@H](CC(C)C)C(C)C(=O)CCCN(C)C(=O)C[C@@H](C(=O)N2CCCCC2)NC(=O)[C@H](CC(C)C)N(C)C(=O)[C@H](CC(C)C)N(C)C(=O)[C@H](CC(C)C)NC(=O)[C@H](CC(C)C)N(C)C(=O)C(CCC(=O)NS(C)(=O)=O)NC(=O)[C@H](Cc2ccccc2)N(C)C(=O)[C@H](Cc2ccccc2)N(C)C1=O (stereo partly drawn) [pd68] ([X17]L[NMeF][NMeF][ξGln(SO2Me)][NMeL]L[NMeL][NMeL]D-Piperidide; lactam N-10)	0.1
CCCCN1CC(=O)N(C)[C@@H](C(C)C)C(=O)N[C@H](C(=O)N2CCCCC2)CC(=O)N(C)[C@@H](CC)C(=O)N[C@@H](CC(C)C)C(=O)N(C)[C@@H](CC(C)C)C(=O)N(C)[C@@H](Cc2ccccc2)C(=O)NC(CCC(=O)NS(C)(=O)=O)C(=O)N(C)[C@@H](Cc2ccccc2)C(=O)N(C)[C@@H](CC(C)C)C(=O)N[C@@H](CC(C)C)C1=O (stereo partly drawn) [pd69] ([NMeAbu]L[NMeL][NMeF][ξGln(SO2Me)][NMeF][NMeL]L[NBuGly][NMeV]D-Piperidide; lactam N-11)	< 0.14
CCCCN1CC(=O)N(C)[C@@H](Cc2ccccc2)C(=O)NC(CCC(=O)NS(C)(=O)=O)C(=O)N(C)[C@@H](CC(C)C)C(=O)N[C@@H](CC(C)C)C(=O)N(C)CC(=O)N(C)[C@@H](Cc2ccccc2)C(=O)N(C)[C@@H](CC(C)C)C(=O)N[C@@H](CC(C)C)C(=O)N(C)[C@@H](CC(C)C)C(=O)N[C@H](C(=O)N2CCCCC2)CC1=O (stereo partly drawn) [pd70] ([NBuGly][NMeF][ξGln(SO2Me)][NMeL]L[Sar][NMeF][NMeL]L[NMeL]D-Piperidide; lactam N-11)	0.17

Same assay, conditions: human, Caco-2, Caco-2 (cm/sec)

SMILES	Papp [×10⁻⁶ cm/s]
CC(C)C[C@@H]1NC(=O)[C@H](CC(C)C)N(C)C(=O)[C@H](C)N(C)C(=O)[C@@H](C(C)C)NC(=O)C[C@@H](C(=O)N2CCCCC2)NC(=O)[C@H]([C@@H](C)O)NC(=O)[C@H](C)N(C)C(=O)CN(C)C(=O)[C@H](CC(C)C)N(C)C(=O)[C@H](Cc2c[nH]c3ccccc23)NC(=O)[C@H](Cc2ccccc2)N(C)C1=O [pd100] ([dV][NMeA][NMeL]L[NMeF]W[NMeL][Sar][NMeA]TD-Piperidide; lactam N-11)	0.11
CC[C@H](C)[C@H]1C(=O)N[C@@H](Cc2c[nH]c3ccccc23)C(=O)N(C)CC(=O)N(C)[C@@H](C)C(=O)N[C@H](C(=O)N2CCCCC2)CC(=O)N(C)[C@@H](C)C(=O)N[C@@H](CC(C)C)C(=O)N(C)[C@@H](CC(C)C)C(=O)N(C)[C@@H](CC(C)C)C(=O)N[C@@H](C)C(=O)N(C)[C@@H](CC(C)C)C(=O)N1C [pd101] ([NMeA]L[NMeL][NMeL]A[NMeL][NMeI]W[Sar][NMeA]D-Piperidide; lactam N-11)	0.13
